# System: luciferase gene expression in HEK 293 cells in response to Comp. 004
# Test: Screen of riboswitch constructs with 12C6-1 variant aptamers (libraries N1-N5) against Comp. 004, luciferase in HEK 293 cells
# Format: cell-based, human
# Source text: Cloning of riboswitch constructs containing 12C6-1 variant aptamer sequences: 12C6-1 aptamer sequence was used as template, and nucleobases were randomized at certain position in the sequence. Aptamers incorporating random mutagenesis were synthesized by Integrated DNA Technologies, Inc. Golden Gate cloning strategy (New England Biolabs, NEB) was used to clone the synthesized aptamer sequences into intron-exon-intron cassette to replace the 12C6-1 aptamer in the Luci-12C6-1 riboswitch construct, generating riboswitch constructs containing variant aptamer sequences.
# To further improve the riboswitch activity in responding to Comp. 004 and related compounds, the aptamer sequence 12C6-1 was subject to mutagenesis to generate aptamer variants, and the riboswitches containing the variant aptamers were screened against Comp. 004 for the ones that have improved dynamic range of induced gene expression (the fold induction), in comparison with the fold induction by parental riboswitch construct Luci-12C6-1. […] These loop or junction region alone or together with stem region in proximity were chosen for random mutagenesis to generate riboswitches with re-engineered aptamer sequences with improved activity.
# Five aptamer libraries N1, N2, N3, N4 and N5 were generated by randomizing nucleotides at positions in J2-4, J2-3/J3-3a/J3a-2/P3, L3a, J4-5/J5-4/P4 and L5 regions of the parent 12C6-1 sequence, respectively (see FIGS. 3a and 3b). Single bacterial colonies were picked and plasmids containing variant riboswitch constructs were screened in HEK 293 cells for improved gene regulation activity in response to 25 µM Comp. 004 as compared to parent riboswitch construct Luci-12C6-1.
# [1] = library N2 variant aptamers (J2-3, P3-J3-3a, J3a-2 randomized) of 12C6-1 in riboswitch constructs, in response to Comp. 004, HEK 293 cells
# [2] = library N5 variant aptamers (L5, X16-X21 randomized) of 12C6-1 in riboswitch constructs, in response to Comp. 004 treatment, HEK 293 cells
# [3] = library N1 (J2-4), HEK 293, 25 M [sic] Comp. 004
Substance,Fold (induction of luciferase gene expression) [2],also measured
N2_2G3 (DNA CTGGGGAGTCCTTCATGC; chemistry not given here),–,Fold (induction of luciferase gene expression) [1]: 1.1 fold
N5_8F1 (DNA CTGGGGAGTCCT; chemistry not given here),951.8 fold,–
N1_2F7 (CTGGGGAGTCCTTCATGCGGGGC; chemistry not given here),–,Fold (induction of luciferase gene expression) [3]: 41.88 fold
N5_7C3 (DNA CTGGGGAGTCCT; chemistry not given here),1258.4 fold,–
N5_7C11 (CTGGGGAGTCCT; chemistry not given here),459.9 fold,–
N5_1E6 (CTGGGGAGTCCT; chemistry not given here),365.1 fold,–
N5_9E12 (DNA CTGGGGAGTCCT; chemistry not given here),1458.4 fold,–
N5_7A10 (CTGGGGAGTCCT; chemistry not given here),1108.5 fold,–
N5_7F5 (DNA CTGGGGAGTCCT; chemistry not given here),1115.4 fold,–
N2_2G10 (DNA CTGGGGAGTCCTTCATGC; chemistry not given here),–,Fold (induction of luciferase gene expression) [1]: 1.0 fold
N5_7D4 (DNA CTGGGGAGTCCT; chemistry not given here),1144.9 fold,–
N2_2D9 (DNA CTGGGGAGTCCTTCATGC; chemistry not given here),–,Fold (induction of luciferase gene expression) [1]: 1.0 fold
N5_13H3 (CTGGGGAGTCCT; chemistry not given here),1288.5 fold,–
N5_7C4 (DNA CTGGGGAGTCCT; chemistry not given here),1363.2 fold,–
N5_7H10 (DNA CTGGGGAGTCCT; chemistry not given here),713.9 fold,–
N5_7F4 (DNA CTGGGGAGTCCT; chemistry not given here),1239.0 fold,–
N5_1F12 (CTGGGGAGTCCT; chemistry not given here),1057.8 fold,–
N5_7E6 (DNA CTGGGGAGTCCT; chemistry not given here),1153.2 fold,–
N2_2D8 (DNA CTGGGGAGTCCTTCATGC; chemistry not given here),–,Fold (induction of luciferase gene expression) [1]: 1.1 fold
N2_2F1 (DNA CTGGGGAGTCCTTCATGC; chemistry not given here),–,Fold (induction of luciferase gene expression) [1]: 1.1 fold

Substance,Fold (induction of luciferase gene expression) [2],also measured
N5_7G6 (DNA CTGGGGAGTCCT; chemistry not given here),902.8 fold,–
N2_2A6 (CTGGGGAGTCCTTCATGC; chemistry not given here),–,Fold (induction of luciferase gene expression) [1]: 1.2 fold
N5_11B9 (CTGGGGAGTCCT; chemistry not given here),1595.4 fold,–
N5_7C10 (CTGGGGAGTCCT; chemistry not given here),1090.7 fold,–
N2_2B7 (CTGGGGAGTCCTTCATGC; chemistry not given here),–,Fold (induction of luciferase gene expression) [1]: 1.2 fold
N5_1H7 (CTGGGGAGTCCT; chemistry not given here),1032.1 fold,–
N2_2F12 (DNA CTGGGGAGTCCTTCATGC; chemistry not given here),–,Fold (induction of luciferase gene expression) [1]: 1.0 fold
N5_1G8 (CTGGGGAGTCCT; chemistry not given here),888.7 fold,–
N5_7A9 (CTGGGGAGTCCT; chemistry not given here),692.6 fold,–
N2_2H10 (CTGGGGAGTCCTTCATGC; chemistry not given here),–,Fold (induction of luciferase gene expression) [1]: 1.0 fold
N1_2E9 (CTGGGGAGTCCTTCATGCGGGGC; chemistry not given here),–,Fold (induction of luciferase gene expression) [3]: 11.27 fold
N5_12F11 (CTGGGGAGTCCT; chemistry not given here),926.7 fold,–
N5_7A5 (CTGGGGAGTCCT; chemistry not given here),785.5 fold,–
N5_7D11 (DNA CTGGGGAGTCCT; chemistry not given here),759.2 fold,–
N5_9E6 (DNA CTGGGGAGTCCT; chemistry not given here),1020.7 fold,–
N5_2G10 (CTGGGGAGTCCT; chemistry not given here),1249.7 fold,–
N5_7E9 (DNA CTGGGGAGTCCT; chemistry not given here),955.3 fold,–
N2_2E8 (DNA CTGGGGAGTCCTTCATGC; chemistry not given here),–,Fold (induction of luciferase gene expression) [1]: 0.9 fold
N5_1A6 (CTGGGGAGTCCT; chemistry not given here),638.8 fold,–
N5_11D10 (CTGGGGAGTCCT; chemistry not given here),1719.3 fold,–

Substance,Fold (induction of luciferase gene expression) [2],also measured
N2_2C1 (CTGGGGAGTCCTTCATGC; chemistry not given here),–,Fold (induction of luciferase gene expression) [1]: 1.1 fold
N5_1C3 (CTGGGGAGTCCT; chemistry not given here),664.1 fold,–
N2_2D12 (DNA CTGGGGAGTCCTTCATGC; chemistry not given here),–,Fold (induction of luciferase gene expression) [1]: 1.1 fold
N1_2D6 (CTGGGGAGTCCTTCATGCGGGGC; chemistry not given here),–,Fold (induction of luciferase gene expression) [3]: 13.57 fold
N5_12G2 (CTGGGGAGTCCT; chemistry not given here),1074.1 fold,–
N1_2D12 (CTGGGGAGTCCTTCATGCGGGGC; chemistry not given here),–,Fold (induction of luciferase gene expression) [3]: 3.26 fold
N5_7A6 (CTGGGGAGTCCT; chemistry not given here),314.5 fold,–
N1_2F4 (CTGGGGAGTCCTTCATGCGGGGC; chemistry not given here),–,Fold (induction of luciferase gene expression) [3]: 4.74 fold
N5_11F4 (CTGGGGAGTCCT; chemistry not given here),1230.1 fold,–
N5_1A8 (CTGGGGAGTCCT; chemistry not given here),589.4 fold,–
N5_6H10 (CTGGGGAGTCCT; chemistry not given here),1466.1 fold,–
N5_1A9 (CTGGGGAGTCCT; chemistry not given here),804.7 fold,–
N5_1H1 (CTGGGGAGTCCT; chemistry not given here),84.1 fold,–
N5_7A1 (CTGGGGAGTCCT; chemistry not given here),897.3 fold,–
N2_2A2 (CTGGGGAGTCCTTCATGC; chemistry not given here),–,Fold (induction of luciferase gene expression) [1]: 0.7 fold
N5_12F12 (CTGGGGAGTCCT; chemistry not given here),1169.8 fold,–
N5_9F1 (DNA CTGGGGAGTCCT; chemistry not given here),875.6 fold,–
N2_2B1 (CTGGGGAGTCCTTCATGC; chemistry not given here),–,Fold (induction of luciferase gene expression) [1]: 1.0 fold
